Paper PMC7083837 (Nature Communications, 2020)
Values joined by “and” are separate entries in the source; they are usually repeats but may differ in a detail not shown here. Identical values can stand only once.

Legend:
Assay in all cases: [3H]IMI dissociation rate assay
Format in all cases: binding
[1] = molecular target: T1, SERT A331D (Homo sapiens, UniProt P31645, A331D)
T1 construct: expressed in transfected cells; host or cells: COS-7
Protocol: (§1) All mutations were confirmed by DNA sequencing. The used primers were
(§2) The allosteric potency was calculated as previously described.

[2] = molecular target: T2, SERT A486E (Homo sapiens, UniProt P31645, A486E)
T2 construct: expressed in transfected cells; host or cells: COS-7
Protocol: as §1, §2

[3] = molecular target: T3, SERT A486E-K490A (Homo sapiens, UniProt P31645, A486E/K490A)
T3 construct: expressed in transfected cells; host or cells: COS-7
Protocol: as §1, §2

[4] = molecular target: T4, SERT D328N (Homo sapiens, UniProt P31645, D328N)
T4 construct: expressed in transfected cells; host or cells: COS-7
Protocol: as §1, §2

[5] = molecular target: T5, SERT E494K (Homo sapiens, UniProt P31645, E494K)
T5 construct: expressed in transfected cells; host or cells: COS-7
Protocol: as §1, §2

[6] = molecular target: T6, SERT F556L (Homo sapiens, UniProt P31645, F556L)
T6 construct: expressed in transfected cells; host or cells: COS-7
Protocol: as §1, §2

[7] = molecular target: T7, SERT F556R (Homo sapiens, UniProt P31645, F556R)
T7 construct: expressed in transfected cells; host or cells: COS-7
Protocol: as §1, §2

[8] = molecular target: T8, SERT I179F (Homo sapiens, UniProt P31645, I179F)
T8 construct: expressed in transfected cells; host or cells: COS-7
Protocol: as §1, §2

[9] = molecular target: T9, SERT L406E (Homo sapiens, UniProt P31645, L406E)
T9 construct: expressed in transfected cells; host or cells: COS-7
Protocol: as §1, §2

[10] = molecular target: T10, SERT R104K (Homo sapiens, UniProt P31645, R104K); settings: R104K
T10 construct: expressed in transfected cells; host or cells: COS-7
Protocol: as §1, §2

## NC(=O)c1ccc2c(c1)CO[C@@]2(CCCN1CCC(c2ccc3ccc(=O)[nH]c3c2)CC1)c1ccc(F)cc1 [Lu AF60097, (S)-1-(4-fluorophenyl)-1-(3-(4-(2-oxo-1,2-dihydroquinolin-7-yl)piperidin-1-yl)propyl)-1,3-dihydroisobenzofuran-5-carboxamide]
[1]; A331D, [^3H]IMI dissociation
  ΔAP (mut/WT), change in allosteric potency relative to SERT WT: 293
[1]; A331D, log conc -4.478
  [^3H]IMI dissociation relative to control (source data Fig 4B): 0.2078 and 0.1902 and 0.1898
[1]; A331D, log conc -4.955
  [^3H]IMI dissociation relative to control (source data Fig 4B): 0.4404 and 0.4549 and 0.4274
[1]; A331D, log conc -5.432
  [^3H]IMI dissociation relative to control (source data Fig 4B): 0.7451 and 0.6969 and 0.749
[1]; A331D, log conc -5.91
  [^3H]IMI dissociation relative to control (source data Fig 4B): 0.8665 and 0.8882 and 0.9518
[1]; A331D, log conc -6.386
  [^3H]IMI dissociation relative to control (source data Fig 4B): 0.9951 and 1.0052 and 1.0336
[1]; A331D, log conc -6.863
  [^3H]IMI dissociation relative to control (source data Fig 4B): 1.0294 and 1.1129 and 0.9351
[1]; A331D, log conc -7.34
  [^3H]IMI dissociation relative to control (source data Fig 4B): 0.9855 and 0.9441 and 1.0485
[1]; SERT A331D (TM6), read-out: Lu AF60097 allosteric potency ([^3H]IMI dissociation IC50)
  IC50: 9100 nM
[2]; A486E, [^3H]IMI dissociation
  ΔAP (mut/WT), change in allosteric potency relative to SERT WT: 15
[2]; SERT A486E (TM10), read-out: Lu AF60097 allosteric potency ([^3H]IMI dissociation IC50)
  IC50: 470 nM
[3]; A486E-K490A, [^3H]IMI dissociation
  ΔAP (mut/WT), change in allosteric potency relative to SERT WT: 77
[3]; A486E-K490A, log conc -4.955
  [^3H]IMI dissociation relative to control (source data Fig 4B): 0.2089 and 0.1837 and 0.2062
[3]; A486E-K490A, log conc -5.432
  [^3H]IMI dissociation relative to control (source data Fig 4B): 0.4714 and 0.3471 and 0.3282
[3]; A486E-K490A, log conc -5.91
  [^3H]IMI dissociation relative to control (source data Fig 4B): 0.664 and 0.6181 and 0.6285
[3]; A486E-K490A, log conc -6.386
  [^3H]IMI dissociation relative to control (source data Fig 4B): 0.93 and 0.8402 and 0.7554
[3]; A486E-K490A, log conc -6.863
  [^3H]IMI dissociation relative to control (source data Fig 4B): 1.01 and 0.967 and 0.9554
[3]; A486E-K490A, log conc -7.34
  [^3H]IMI dissociation relative to control (source data Fig 4B): 1 and 1.03 and 0.8514
[3]; A486E-K490A, log conc -7.817
  [^3H]IMI dissociation relative to control (source data Fig 4B): 1.04 and 0.999 and 0.8949
[3]; SERT A486E-K490A, read-out: Lu AF60097 allosteric potency ([^3H]IMI dissociation IC50)
  IC50: 2400 nM
[4]; D328N, [^3H]IMI dissociation
  ΔAP (mut/WT), change in allosteric potency relative to SERT WT: 1.7
[4]; SERT D328N (TM6), read-out: Lu AF60097 allosteric potency ([^3H]IMI dissociation IC50)
  IC50: 54 nM
[5]; E494K, [^3H]IMI dissociation
  ΔAP (mut/WT), change in allosteric potency relative to SERT WT: 286
[5]; E494K, log conc -5.432
  [^3H]IMI dissociation relative to control (source data Fig 4B): 0.0801 and 0.1174 and 0.0764
[5]; E494K, log conc -5.91
  [^3H]IMI dissociation relative to control (source data Fig 4B): 0.1958 and 0.2217 and 0.1263
[5]; E494K, log conc -6.386
  [^3H]IMI dissociation relative to control (source data Fig 4B): 0.3078 and 0.3762 and 0.3174
[5]; E494K, log conc -6.863
  [^3H]IMI dissociation relative to control (source data Fig 4B): 0.5705 and 0.5743 and 0.4488
[5]; E494K, log conc -7.34
  [^3H]IMI dissociation relative to control (source data Fig 4B): 0.7153 and 0.7476 and 0.7791
[5]; E494K, log conc -7.817
  [^3H]IMI dissociation relative to control (source data Fig 4B): 0.8258 and 0.83 and 0.9008
[5]; E494K, log conc -8.294
  [^3H]IMI dissociation relative to control (source data Fig 4B): 0.8606 and 0.9262 and 0.8913
[5]; SERT E494K (TM10), read-out: Lu AF60097 allosteric potency ([^3H]IMI dissociation IC50)
  IC50: 8900 nM
[6]; F556L, [^3H]IMI dissociation
  ΔAP (mut/WT), change in allosteric potency relative to SERT WT: 10
[6]; SERT F556L (TM11), read-out: Lu AF60097 allosteric potency ([^3H]IMI dissociation IC50)
  IC50: 330 nM
[7]; F556R, [^3H]IMI dissociation
  ΔAP (mut/WT), change in allosteric potency relative to SERT WT: >300
[7]; SERT F556R (TM11)
  Lu AF60097 allosteric potency ([^3H]IMI dissociation IC50): complete ablation of the allosteric potency
[7]; SERT F556R (TM11), read-out: Lu AF60097 allosteric potency ([^3H]IMI dissociation IC50)
  IC50: ≥ 10000 nM
[8]; I179F, [^3H]IMI dissociation
  ΔAP (mut/WT), change in allosteric potency relative to SERT WT: 14
[8]; I179F, log conc -7.817
  [^3H]IMI dissociation relative to control (source data Fig 4B): 0.8727 and 0.9098
[8]; SERT I179F (TM3), read-out: Lu AF60097 allosteric potency ([^3H]IMI dissociation IC50)
  IC50: 440 nM
[9]; L406E, [^3H]IMI dissociation
  ΔAP (mut/WT), change in allosteric potency relative to SERT WT: 21
[9]; L406E, log conc -5.91
  [^3H]IMI dissociation relative to control (source data Fig 4B): 0.3505 and 0.3638 and 0.3072
[9]; L406E, log conc -6.386
  [^3H]IMI dissociation relative to control (source data Fig 4B): 0.6157 and 0.6402 and 0.5827
[9]; L406E, log conc -6.863
  [^3H]IMI dissociation relative to control (source data Fig 4B): 0.8533 and 0.8586 and 0.8107
[9]; L406E, log conc -7.34
  [^3H]IMI dissociation relative to control (source data Fig 4B): 0.9622 and 0.9861 and 1.0073
[9]; L406E, log conc -7.817
  [^3H]IMI dissociation relative to control (source data Fig 4B): 1.016 and 1.0012 and 1.0446
[9]; SERT L406E (EL4), read-out: Lu AF60097 allosteric potency ([^3H]IMI dissociation IC50)
  IC50: 650 nM
[10]; [^3H]IMI dissociation
  ΔAP (mut/WT), change in allosteric potency relative to SERT WT: 19
[10]; log conc -5.91
  [^3H]IMI dissociation relative to control (source data Fig 4B): 0.3316 and 0.2892 and 0.4871 and 0.3865
[10]; log conc -6.386
  [^3H]IMI dissociation relative to control (source data Fig 4B): 0.5872 and 0.4706 and 0.6618 and 0.5459
